In patent publication US12129246B1, “Hydroquinazoline derivatives for the treatment of a disease or disorder” (Novartis AG, priority 2023, dated 2024):

Molecular target: T1, human NPR1 (Homo sapiens, UniProt P16066)
T1 construct: host or cells: CHO-K1
T1 sequence (P16066 33-1061): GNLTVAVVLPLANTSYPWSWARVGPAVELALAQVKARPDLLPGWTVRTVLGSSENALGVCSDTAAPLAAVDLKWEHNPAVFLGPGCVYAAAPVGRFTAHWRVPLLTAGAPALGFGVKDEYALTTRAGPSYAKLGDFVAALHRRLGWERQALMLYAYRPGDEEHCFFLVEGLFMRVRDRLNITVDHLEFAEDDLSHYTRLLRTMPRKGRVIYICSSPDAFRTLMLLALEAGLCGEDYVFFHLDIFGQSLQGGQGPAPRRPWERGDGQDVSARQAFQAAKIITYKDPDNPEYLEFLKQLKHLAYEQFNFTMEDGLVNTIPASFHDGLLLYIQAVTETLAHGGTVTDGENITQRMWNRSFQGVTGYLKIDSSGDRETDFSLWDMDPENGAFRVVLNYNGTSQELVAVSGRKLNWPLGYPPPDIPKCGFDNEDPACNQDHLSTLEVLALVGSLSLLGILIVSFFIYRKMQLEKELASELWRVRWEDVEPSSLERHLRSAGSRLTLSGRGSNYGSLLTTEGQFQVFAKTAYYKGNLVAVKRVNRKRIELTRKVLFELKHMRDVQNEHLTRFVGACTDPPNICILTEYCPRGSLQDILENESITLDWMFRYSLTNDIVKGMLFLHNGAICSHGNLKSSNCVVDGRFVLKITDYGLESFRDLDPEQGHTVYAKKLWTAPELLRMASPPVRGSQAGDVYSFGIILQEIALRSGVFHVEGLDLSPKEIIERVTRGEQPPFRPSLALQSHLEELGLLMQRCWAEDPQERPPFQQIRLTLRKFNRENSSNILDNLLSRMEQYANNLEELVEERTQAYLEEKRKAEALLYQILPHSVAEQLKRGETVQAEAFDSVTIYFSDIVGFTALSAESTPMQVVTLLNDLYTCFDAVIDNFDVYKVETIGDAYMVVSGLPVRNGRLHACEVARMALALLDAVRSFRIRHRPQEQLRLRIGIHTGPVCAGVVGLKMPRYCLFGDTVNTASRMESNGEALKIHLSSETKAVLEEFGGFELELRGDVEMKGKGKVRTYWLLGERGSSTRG
Assay: Cellular cGMP production assay, human NPR1 expressing CHO-K1 cells (CisBio HTRF)
Type: cell-based
Conditions: for AC50: cGMP production, 30 min at 37° C., 12-point dose-response from 30 μM; for Human NPR1 Amax (% of ANP): maximum cGMP production as percentage of the maximum cGMP produced with ANP
Procedure: Cellular cGMP is a major second messenger that mediates cell activities and is synthesized by activated NPR1 triggered by binding of the natural ligand ANP. […] The assay was performed according to manufacturer's instructions with minor deviations. […] All compound stocks were diluted in PBS+0.1% BSA at 2-fold the final assay concentration. After addition of 10 μL/well of assay buffer (PBS+0.1% BSA+1 mM IBMX) and 10 μL/well of the compounds in different concentrations (12-point dose-response with 3-fold dilutions from a top concentration of 30 μM), the plate was incubated for 30 min at 37° C. to allow for cGMP production. In parallel, a standard curve using a calibrator (contained in the kit) was generated. The cells were lysed and a mix of cGMP-d2 and anti-cGMP-cryptate was added and incubated for 1 h at room temperature. The readout was performed using an Envision plate reader (PerkinElmer) with an excitation wavelength of 317 nm and an emission wavelength of 665 nm. cGMP concentration (Delta F [° %]) was calculated according to the following formulae: […]

| SMILES | AC50 [nM] | Human NPR1 Amax (% of ANP) |
| --- | --- | --- |
| CC[C@H]([C@H]1CC[C@H](C(=O)O)CC1)N(C)c1nc2c(c(N[C@@H](CN3CCC[C@@H]4C[C@@H]43)c3cnn(C)c3)n1)C[C@H](c1ccccc1)CC2 [Compound 177, (1R,4r)-4-((R)-1-(((R)-4-(((R)-2-((1S,6R)-2-azabicyclo[4.1.0]heptan-2-yl)-1-(1-methyl-1H-pyrazol-4-yl)ethyl)amino)-6-phenyl-5,6,7,8-tetrahydroquinazolin-2-yl)(methyl)amino)propyl)cyclohexane-1-carboxylic acid] | 488 | 107.75 % of ANP |
| CC[C@H]([C@H]1CC[C@H](C(=O)O)CC1)N(C)c1nc2c(c(N[C@@H](CN3CCC[C@H]4C[C@H]43)c3cnn(C)c3)n1)C[C@H](c1ccccc1)CC2 [Compound 176, (1R,4r)-4-((R)-1-(((R)-4-(((R)-2-((1R,6S)-2-azabicyclo[4.1.0]heptan-2-yl)-1-(1-methyl-1H-pyrazol-4-yl)ethyl)amino)-6-phenyl-5,6,7,8-tetrahydroquinazolin-2-yl)(methyl)amino)propyl)cyclohexane-1-carboxylic acid] | 359 | 107.70 % of ANP |
| CC[C@H]([C@H]1CC[C@H](C(=O)O)CC1)N(C)c1nc2c(c(N[C@@H](CN3C[C@H](C)C[C@@H](OC)C3)c3cnn(C)c3)n1)C[C@H](c1ccccc1)CC2 [Compound 183, (1R,4r)-4-((R)-1-(((R)-4-(((R)-2-((3R,5R)-3-methoxy-5-methylpiperidin-1-yl)-1-(1-methyl-1H-pyrazol-4-yl)ethyl)amino)-6-phenyl-5,6,7,8-tetrahydroquinazolin-2-yl)(methyl)amino)propyl)cyclohexane-1-carboxylic acid] | 380 | 98.57 % of ANP |
| CC[C@H]([C@H]1CC[C@H](C(=O)O)CC1)N(C)c1nc2c(c(N[C@@H](CN3CC[C@@H](O)[C@H](C)C3)c3cnn(C)c3)n1)C[C@H](c1ccccc1)CC2 [Compound 179, (1R,4r)-4-((R)-1-(((R)-4-(((R)-2-((3R,4R)-4-hydroxy-3-methylpiperidin-1-yl)-1-(1-methyl-1H-pyrazol-4-yl)ethyl)amino)-6-phenyl-5,6,7,8-tetrahydroquinazolin-2-yl)(methyl)amino)propyl)cyclohexane-1-carboxylic acid] | 2710 | 97.72 % of ANP |
| CC[C@H]([C@H]1CC[C@H](C(=O)O)CC1)N(C)c1nc2c(c(N[C@@H](CN3C[C@@H](C)C[C@H](OC)C3)c3cnn(C)c3)n1)C[C@H](c1ccccc1)CC2 [Compound 184, (1R,4r)-4-((R)-1-(((R)-4-(((R)-2-((3S,5S)-3-methoxy-5-methylpiperidin-1-yl)-1-(1-methyl-1H-pyrazol-4-yl)ethyl)amino)-6-phenyl-5,6,7,8-tetrahydroquinazolin-2-yl)(methyl)amino)propyl)cyclohexane-1-carboxylic acid] | 940 | 103.67 % of ANP |
| CC[C@@H](Nc1nc2c(c(N[C@@H](CN3CCCC(CF)C3)c3cnn(C)c3)n1)C[C@H](c1cccc(F)c1)CC2)[C@H]1CC[C@H](C(=O)O)CC1 (stereo partly drawn) [Compound 175, (1R,4r)-4-((1R)-1-(((6R)-4-(((1R)-2-(3-(fluoromethyl)piperidin-1-yl)-1-(1-methyl-1H-pyrazol-4-yl)ethyl)amino)-6-(3-fluorophenyl)-5,6,7,8-tetrahydroquinazolin-2-yl)amino)propyl)cyclohexane-1-carboxylic acid] | 89 | 109.91 % of ANP |
| CC[C@H]([C@H]1CC[C@H](C(=O)O)CC1)N(C)c1nc2c(c(N[C@@H](CN3CCC[C@](C)(O)C3)c3cnn(C)c3)n1)C[C@H](c1ccccc1)CC2 [Compound 186, (1R,4r)-4-((R)-1-(((R)-4-(((R)-2-((S)-3-hydroxy-3-methylpiperidin-1-yl)-1-(1-methyl-1H-pyrazol-4-yl)ethyl)amino)-6-phenyl-5,6,7,8-tetrahydroquinazolin-2-yl)(methyl)amino)propyl)cyclohexane-1-carboxylic acid] | 406 | 110.66 % of ANP |
